Assay results from US6723897B2, “Methods for controlling gibberellin levels” (Monsanto Technology, LLC, priority 1998, dated 2004).

How the values were obtained:
[1] = system: AX5/antisense CPScc soybean line 234 (R3); assay: Hilum seed treatment of epicotyl-intensive GA-deficient soybean, height (FIG. 43); assay type: in vivo, Glycine max; conditions: 10 DAP
Method: The purpose of this study is to evaluate the ability of four GA compounds, i.e., GA9, GA5, GA3-3-acetate, and GA12, to restore normal growth in AX5/antisense CPScc soybean lines when applied as a seed treatment.
Line 46 plants are R2; Line 234 plants are R3.
The GA compounds are dissolved in ethanol and applied to the hilum of dry seeds as not more than 10 μl droplets with a syringe. If multiple applications are made to seeds, the previous application is allowed to dry before a subsequent application is made.
Seeds are sown 1 inch deep in commercial potting soil (Metromix 200) in 4-inch plastic pots and placed in a greenhouse set for 12 hours artificial light and a temperature regime of 85° F. (29° C.) day and 75° F. night (24° C.). Pots are watered as necessary by overhead hand watering. Hypocotyl and epicotyl measurements are made for each plant at various stages of plant growth.
The lower dashed horizontal line represents the total height of untreated AX5 line 234 soybeans. The upper dashed horizontal line represents the total height of untreated wild-type A4922 soybeans. Measurements are made 10 days after planting.

[2] = system: transgenic line 719 soybean; assay: Field trial of seed coatings under soil compaction / different soils, GA-deficient soybean; assay type: in vivo, Glycine max; conditions: for Count (emergence) / Dwarfs (number of dwarfs not rescued) / Dwarfs (number not rescued): Line 719
[3] = Particulate material present in solutions after mixing; assay type: physicochemical
How it was run: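 Compounds were made up at 25 mg/ml in absolute ethanol, vortexed, and remaining particles crushed with a spatula. Vials stood overnight at room temperature and were remixed, with undissolved material noted throughout.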

[4] = Half-lives of 14C-labelled GA compounds in planta; conditions: ^14C-labelled compound on seed of Asgrow 3237 soybeans
Method: ^14C-radiolabelled compounds are obtained from Lew Mander (Australian National University). ^14C-GA3 is dissolved in water:ethanol, 80:20, v/v; ^14C-GA9 and ^14C-GA12 are dissolved in 100% ethanol. Seeds of Asgrow 3237 soybeans are treated separately with solutions of each of the ^14C-radiolabelled compounds (1.7-6.8 μg; 10-40 ppm; 111,000-2,000,000 dpm/seed) by placing one to four μl of the dosing solution directly on the seed coat (^14C-GA3, GA9, and GA12), or on the hilum portion of the seed (^14C-GA3). After evaporation of the carrier solvent (approx. one hour), the treated seed is planted in containers containing approximately 30 gm of Metromix-350, and transferred to a growth chamber. Plants are grown under a 12 hour light/12 hour dark regime at 92° F. (33° C.)and 75% humidity. The pattern of uptake and translocation of ^14C-radioactivity in treated seed is monitored up to 12 days past initial treatment. For most experiments, three replicate plants are harvested at one hour after treatment, one day after treatment (DAT), two DAT, three DAT, six or seven DAT, and 12 DAT. […] The level of ^14C-radioactivity in different plant parts is determined by extraction of plant tissues with aqueous methanol and scintillation counting. The extent of metabolism of the ^14C-labelled GA compounds in planta is determined by HPLC analysis of plant extracts. […]
The general extraction procedure consisted of blending the plant parts in a high speed polytron tissue homogenizer for 1-5 minutes with 10-20 ml of ice-cold methanol:water, 80:20, v/v, followed by vacuum filtration through a Whatman glass fiber filter. The filter cake is re-extracted as necessary using the procedure described above until an insignificant amount of radioactivity is removed. Prior to combining the extracts from each sample, aliquots are weighed and analyzed by liquid scintillation counting (LSC) to determine the amount of extracted radioactivity in each extract. Aliquots of the air-dried filter cakes are combusted and analyzed by LSC in order to determine the amount of non-extracted radioactivity. […]

[5] = Distribution of 14C label in soybean plant parts after seed treatment
Method: ^14C-radiolabelled compounds are obtained from Lew Mander (Australian National University). ^14C-GA3 is dissolved in water:ethanol, 80:20, v/v; ^14C-GA9 and ^14C-GA12 are dissolved in 100% ethanol. Seeds of Asgrow 3237 soybeans are treated separately with solutions of each of the ^14C-radiolabelled compounds (1.7-6.8 μg; 10-40 ppm; 111,000-2,000,000 dpm/seed) by placing one to four μl of the dosing solution directly on the seed coat (^14C-GA3, GA9, and GA12), or on the hilum portion of the seed (^14C-GA3). After evaporation of the carrier solvent (approx. one hour), the treated seed is planted in containers containing approximately 30 gm of Metromix-350, and transferred to a growth chamber. Plants are grown under a 12 hour light/12 hour dark regime at 92° F. (33° C.)and 75% humidity. The pattern of uptake and translocation of ^14C-radioactivity in treated seed is monitored up to 12 days past initial treatment. For most experiments, three replicate plants are harvested at one hour after treatment, one day after treatment (DAT), two DAT, three DAT, six or seven DAT, and 12 DAT. At the time of each harvest, plants are divided into leaves, epicotyl, cotyledon, hypocotyl, and roots. The level of ^14C-radioactivity in different plant parts is determined by extraction of plant tissues with aqueous methanol and scintillation counting. The extent of metabolism of the ^14C-labelled GA compounds in planta is determined by HPLC analysis of plant extracts. The details are as follows.
The general extraction procedure consisted of blending the plant parts in a high speed polytron tissue homogenizer for 1-5 minutes with 10-20 ml of ice-cold methanol:water, 80:20, v/v, followed by vacuum filtration through a Whatman glass fiber filter. The filter cake is re-extracted as necessary using the procedure described above until an insignificant amount of radioactivity is removed. Prior to combining the extracts from each sample, aliquots are weighed and analyzed by liquid scintillation counting (LSC) to determine the amount of extracted radioactivity in each extract. Aliquots of the air-dried filter cakes are combusted and analyzed by LSC in order to determine the amount of non-extracted radioactivity. The extracts are combined and, when necessary, concentrated by rotary evaporation at a bath temperature of less than 35° C. to a small volume for analysis by HPLC to determine the extent of metabolism of the ^14C-labelled GA compounds in planta.

[6] = system: AX5/antisense CPScc soybean line 46 (R2); assay: Hilum seed treatment of epicotyl-intensive GA-deficient soybean, seedling height (FIG. 42); assay type: in vivo, Glycine max; conditions: 8 DAP
Method: These studies are performed on soybean plants engineered to express their GA-deficient phenotype throughout the life cycle via the use of the constitutive FMV promoter (line 719, FMV/antisense CPScc). In contrast to the constitutive FMV promoter, the peak activity of the AX5 promoter is developmentally restricted to the soybean seedling axis (epicotyl) three to five days after the start of imbibition, with limited expression beyond the seedling stage of development. Soybean lines transformed with the […] cassette therefore display an epicotyl-intensive dwarf phenotype. In these lines, inhibition of the hypocotyl is modest; most of the total height reduction in these plants is due to shortening of the epicotyl. Rescue of […] soybean plants therefore presents different technical challenges from those required for rescue of constitutively GA-deficient transgenic dwarf soybean lines containing the […] construct. […] Seed from both lines is produced from greenhouse-grown plants. […] If multiple applications are made to seeds, the previous application is allowed to dry before a subsequent application is made. […] (29° C.) day and 75° F. night (24° C.). Pots are watered as necessary by overhead hand watering. Hypocotyl and epicotyl measurements are made for each plant at various stages of plant growth. […] The results are shown in FIG. 42, where the error bar represents +/-two times the standard error of the mean (n=12-15). […] The upper dashed horizontal line represents the total height of untreated wild-type […] soybeans. Measurements are made 8 days after planting.

[7] = Heavy soil - loose, target rate 2.0 μg/seed, Table 22
[8] = Heavy soil - loose, target rate 8.0 μg/seed, Table 22
[9] = Light soil - Compacted, target rate 2.0 μg/seed, Table 22
[10] = Light soil - Compacted, target rate 8.0 μg/seed, Table 22
[11] = Light soil - Loose, target rate 2.0 μg/seed, Table 24
[12] = Light soil - Loose, target rate 8.0 μg/seed, Table 24
[13] = Light soil - Loose, target rate 16.0 μg/seed, Table 24
[14] = Light soil - compacted, target rate 2.0 μg/seed, Table 24
[15] = Light soil - compacted, target rate 8.0 μg/seed, Table 24
[16] = Light soil - compacted, target rate 16.0 μg/seed, Table 24

## C=C1C[C@]23C[C@H]1CC[C@H]2[C@@]12CCC[C@@](C)(C(=O)O1)[C@H]2[C@@H]3C(=O)O [GA9]
[1]
  activity relative to GA3, GA3-3-acetate and GA5: approximately 10 times less active
[1]; hypocotyl and epicotyl elongation, hypocotyl to epicotyl ratio not maintained
  restoration of height of line 234 soybeans: restore normal height to line 234 soybeans
[2]; 3.1 μg/seed
  % Emergence, Heavy Soil-Loose: 103%
  % Emergence, Light Soil-Compact: 103%
  % Rescue, Heavy Soil-Loose: 80%
  % Rescue, Light Soil-Compact: 91%
[2]; 4.9 μg/seed
  % Emergence, Heavy Soil-Loose: 91%
  % Emergence, Light Soil-Compact: 73%
  % Rescue, Heavy Soil-Loose: 93%
  % Rescue, Light Soil-Compact: 100%
[2]; [7]
  Count (emergence): 42 a
  Dwarfs (number of dwarfs not rescued): 2.0 cde
[2]; [8]
  Count (emergence): 35 abc
  Dwarfs (number of dwarfs not rescued): 0.7 cde
[2]; [9]
  Count (emergence): 38 abc
  Dwarfs (number of dwarfs not rescued): 0.7 cd
[2]; [10]
  Count (emergence): 27 b-f
  Dwarfs (number of dwarfs not rescued): 0 days
[2]; [11]
  Count (emergence): 48.0 a
  Dwarfs (number not rescued): 2.3 e
[2]; [12]
  Count (emergence): 49.0 a
  Dwarfs (number not rescued): 0 e
[2]; [13]
  Count (emergence): 45.0 ab
  Dwarfs (number not rescued): 0 e
[2]; [14]
  Count (emergence): 38.3 abc
  Dwarfs (number not rescued): 0.7 cd
[2]; [15]
  Count (emergence): 27.3 b-f
  Dwarfs (number not rescued): 0
[2]; [16]
  Count (emergence): 29.7 a-f
  Dwarfs (number not rescued): 0
[2]; based on the last two field trials
  rank of potential for rescuing GA-deficient dwarf soybeans without decreasing emergence: GA9>GA5>GA3-3-acetate>GA3>GA12
[2]; emergence under soil compaction, margin of selectivity, rescue without overelongation, Table 22
  best to least selectivity order: GA9>GA5>GA3-3-acetate>GA3
[3]; 0.25 mg/ml compound in water
  Particulate material present, 100X Diln w/water: YES
[3]; 0.25 mg/ml treatment solutions
  solubility in water during imbibition: less soluble in water during imbibition
[4]
  Half-life (days) in planta: <1 days
[5]; 3 DAP
  ^14C Label Distribution (% of dose), Cotyledon: 60 % of dose
  ^14C Label Distribution (% of dose), Hypocotyl: 6.8 % of dose
  ^14C Label Distribution (% of dose), Root: 1.3 % of dose
[5]; 12 DAP
  ^14C Label Distribution (% of dose), Cotyledon: 54 % of dose
  ^14C Label Distribution (% of dose), Epicotyl: 0.1 % of dose
  ^14C Label Distribution (% of dose), Hypocotyl: 1.0 % of dose
  ^14C Label Distribution (% of dose), Leaves: 0.3 % of dose
  ^14C Label Distribution (% of dose), Root: 1.0 % of dose
[6]
  activity relative to GA3, GA3-3-acetate and GA5: approximately ten times less active
  effect on line 46 total height: rescued AX5/asCPScc soybean line 46 total height, with some hypocotyl over-elongation
